For this test, the system named is GTPase KRas (Homo sapiens), P01116 [G12D]. Nature of the test: Protac activity at VHL/KRAS G12D in human ASPC1 cells assessed as induction of KRAS G12D protein degradation at 1 uM incubated for 24 hrs by luminescence based analysis relative to control. Format: cell-based.
Chain of GTPase KRas (Homo sapiens), P01116 [G12D] (P01116 whole entry G12D, looked up): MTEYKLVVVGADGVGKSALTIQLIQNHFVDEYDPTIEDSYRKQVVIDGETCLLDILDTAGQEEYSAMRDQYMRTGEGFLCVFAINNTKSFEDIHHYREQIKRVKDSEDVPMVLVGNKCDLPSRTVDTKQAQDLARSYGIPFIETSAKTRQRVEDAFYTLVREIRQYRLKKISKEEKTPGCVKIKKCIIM
With `Cc1ncsc1-c1ccc([C@H](C)NC(=O)[C@@H]2C[C@@H](O)CN2C(=O)[C@@H](NC(=O)CCCCN2CCC[C@H]2COc2nc(N3CC4CCC(C3)N4)c3cc(Cl)c(-c4ccc(F)c5sc(N)nc45)c(F)c3n2)C(C)(C)C)cc1`, the Activity was determined as 38.1%. The value for `Cc1cc(N)nc(-c2c(Cl)cc3c(N4CC5CCC(C4)N5)nc(OC[C@@H]4CCCN4CCCOCCC(=O)N[C@H](C(=O)N4C[C@H](O)C[C@H]4C(=O)NCc4ccc(-c5scnc5C)cc4)C(C)(C)C)nc3c2F)c1C(F)(F)F` was -0.69%; that for `Cc1cc(N)nc(-c2c(Cl)cc3c(N4CC5CCC(C4)N5)nc(OC[C@@H]4CCCN4CCCOCCC(=O)N[C@H](C(=O)N4C[C@H](O)C[C@H]4C(=O)N[C@@H](C)c4ccc(-c5scnc5C)cc4)C(C)(C)C)nc3c2F)c1C(F)(F)F` was 29.3%. The figure for `Cc1cc(N)nc(-c2c(Cl)cc3c(N4CC5CCC(C4)N5)nc(OC[C@@H]4CCCN4CCCOCCCOc4cc(-c5scnc5C)ccc4CNC(=O)[C@@H]4C[C@@H](O)CN4C(=O)[C@H](NC(=O)C4(F)CC4)C(C)(C)C)nc3c2F)c1C(F)(F)F` is -5.46%; for `Cc1cc(N)nc(-c2c(Cl)cc3c(N4CC5CCC(C4)N5)nc(OC[C@@H]4CCCN4CCCCCCCN4CCC(c5cc(F)cc6c5CN(C5CCC(=O)NC5=O)C6=O)CC4)nc3c2F)c1C(F)(F)F` (stereo partly specified) it is -22.9%. For `Cc1ncsc1-c1ccc([C@H](C)NC(=O)[C@@H]2C[C@@H](O)CN2C(=O)[C@@H](NC(=O)CCOCCCN2CCC[C@H]2COc2nc(N3CC4CCC(C3)N4)c3cc(Cl)c(-c4ccc(F)c5sc(N)nc45)c(F)c3n2)C(C)(C)C)cc1`, the Activity came out at 51.3%.

(Values after ChEMBL document CHEMBL5257142, “Targeted Degradation of KRASG12D as Potential Therapy in Cancer” (ACS Med Chem Lett, 2023).)
